{"source": "patent US12371428B2", "about": "(Exelixis, Inc., priority 2019, dated 2025)", "key": {"[1]": {"target": "Mer (phospho-Mer, MERTK-transfected 293A cells) (Homo sapiens (Human), UniProt Q12866)", "sequence (Q12866 21-999)": "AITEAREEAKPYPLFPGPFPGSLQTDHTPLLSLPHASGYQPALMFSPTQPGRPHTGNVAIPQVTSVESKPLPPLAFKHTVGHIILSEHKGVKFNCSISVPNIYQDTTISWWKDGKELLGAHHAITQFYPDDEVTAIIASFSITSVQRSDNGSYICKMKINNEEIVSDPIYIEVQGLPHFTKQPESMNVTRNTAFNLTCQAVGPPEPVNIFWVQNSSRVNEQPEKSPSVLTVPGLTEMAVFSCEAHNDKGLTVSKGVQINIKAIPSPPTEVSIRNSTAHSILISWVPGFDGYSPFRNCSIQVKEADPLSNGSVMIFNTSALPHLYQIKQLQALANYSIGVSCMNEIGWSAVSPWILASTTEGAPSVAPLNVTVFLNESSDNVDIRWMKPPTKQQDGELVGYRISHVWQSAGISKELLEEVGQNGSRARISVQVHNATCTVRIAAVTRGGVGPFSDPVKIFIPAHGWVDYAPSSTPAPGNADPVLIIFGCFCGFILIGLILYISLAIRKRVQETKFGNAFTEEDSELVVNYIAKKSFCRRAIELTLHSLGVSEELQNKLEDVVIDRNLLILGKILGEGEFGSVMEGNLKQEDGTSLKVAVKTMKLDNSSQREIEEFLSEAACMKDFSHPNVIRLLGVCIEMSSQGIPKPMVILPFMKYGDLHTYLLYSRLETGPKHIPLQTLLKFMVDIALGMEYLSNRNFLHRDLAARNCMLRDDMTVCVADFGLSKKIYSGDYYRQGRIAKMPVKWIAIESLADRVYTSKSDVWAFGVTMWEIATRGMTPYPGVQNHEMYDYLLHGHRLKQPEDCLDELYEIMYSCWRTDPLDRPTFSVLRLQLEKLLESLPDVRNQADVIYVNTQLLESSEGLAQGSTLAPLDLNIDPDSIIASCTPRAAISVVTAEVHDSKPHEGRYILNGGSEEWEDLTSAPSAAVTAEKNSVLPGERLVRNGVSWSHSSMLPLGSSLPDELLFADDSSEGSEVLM", "test": "Mer autophosphorylation ELISA in transient transfected 293A cells (Example H)", "assay_type": "cell-based", "details": "cellular activity; Mer autophosphorylation ELISA in transient transfected 293A cells", "in_short": "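Human MERTK transiently transfected into 293A cells; compounds as 8-point dose curve in serum-free medium (0.3% DMSO final), 1 h. Lysates assayed by phospho-Mer sandwich ELISA against phospho-Mer standard; DMSO = 100%, reference inhibitor = 0% activity; IC50 from 4-parameter logistic fit.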"}, "[2]": {"target": "Human MET (residues 956-1390) (Homo sapiens (Human), UniProt P08581)", "sequence (P08581 956-1390)": "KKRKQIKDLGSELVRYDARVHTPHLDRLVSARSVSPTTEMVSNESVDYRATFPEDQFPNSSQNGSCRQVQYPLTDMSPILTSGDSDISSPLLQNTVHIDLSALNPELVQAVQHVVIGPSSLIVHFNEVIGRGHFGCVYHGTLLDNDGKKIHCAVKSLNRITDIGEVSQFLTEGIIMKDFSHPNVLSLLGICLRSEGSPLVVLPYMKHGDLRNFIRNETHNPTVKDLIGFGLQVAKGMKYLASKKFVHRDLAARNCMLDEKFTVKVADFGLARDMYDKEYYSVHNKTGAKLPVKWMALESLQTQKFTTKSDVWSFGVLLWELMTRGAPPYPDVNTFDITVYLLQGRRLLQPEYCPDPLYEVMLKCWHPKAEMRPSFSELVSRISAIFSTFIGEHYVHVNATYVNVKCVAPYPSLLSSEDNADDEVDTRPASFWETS", "test": "Human Met kinase assay, HTRF KinEase (Example D-2)", "assay_type": "biochemical", "details": "protocol of Example D-2 (other compounds); read-out: c-Met IC50", "in_short": "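HTRF KinEase assay on MET residues 956-1390 (0.1 ng/well) in buffer with 5 mM MgCl2, 1 mM DTT and 1 mM MnCl2, with biotinylated peptide substrate, ATP at Km, 10 compound concentrations and 3% DMSO final, run 40 min at room temperature. The […] signal was normalized to DMSO and to 1 μM reference compound, and IC50 came from a 4-parameter logistic fit.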"}, "[3]": {"target": "Human MER (residues 528-999) (Homo sapiens (Human), UniProt Q12866)", "sequence (Q12866 528-999)": "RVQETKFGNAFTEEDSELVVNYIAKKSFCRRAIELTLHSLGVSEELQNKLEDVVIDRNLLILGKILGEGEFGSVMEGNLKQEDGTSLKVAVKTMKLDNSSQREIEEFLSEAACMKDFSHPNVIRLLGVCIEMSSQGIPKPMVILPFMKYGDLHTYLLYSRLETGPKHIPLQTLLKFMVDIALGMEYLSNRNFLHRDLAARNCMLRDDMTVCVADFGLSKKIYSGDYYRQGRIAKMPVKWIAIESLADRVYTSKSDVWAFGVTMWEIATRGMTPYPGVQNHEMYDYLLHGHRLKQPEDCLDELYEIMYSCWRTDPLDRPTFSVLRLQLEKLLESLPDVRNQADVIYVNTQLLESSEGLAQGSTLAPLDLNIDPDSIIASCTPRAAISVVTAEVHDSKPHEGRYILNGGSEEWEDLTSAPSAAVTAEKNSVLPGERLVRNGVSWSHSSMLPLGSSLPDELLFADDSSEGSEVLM", "test": "Human Mer kinase assay, HTRF KinEase (Example C-2)", "assay_type": "biochemical", "details": "protocol of Example C-2 (other compounds)", "in_short": "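HTRF KinEase TK assay with MER 528-999 (1 ng/well) in enzymatic buffer plus 5 mM MgCl2 and 1 mM DTT, biotinylated peptide substrate and ATP at Km (40 μM), 3% DMSO final, 60 min at room temperature. Stopped with EDTA detection mix (SA-XL665, TK antibody-Eu3+), read at 665/620 nm after 60 min; IC50 from 10-point 4-parameter fit, normalized to DMSO and 1 μM reference.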"}}, "note": "pIC50: −log10 of the molar value."}
{"compound": "COc1cc2nccc(Oc3ccc(NC(=O)c4cnc(C)c(-c5ccc(F)cc5C)c4O)cc3F)c2nc1OCCCN1CCOCC1", "note": "[Compound 425, N-[3-fluoro-4-[[7-methoxy-6-(3-morpholin-4-ylpropoxy)-1,5-naphthyridin-4-yl]oxy]phenyl]-5-(4-fluoro-2-methylphenyl)-4-hydroxy-6-methylpyridine-3-carboxamide]", "values": [{"measurement": "pIC50", "setting": "[1]", "value": "> 7.00"}, {"measurement": "pIC50", "setting": "[2]", "value": "> 7.00"}, {"measurement": "pIC50", "setting": "[3]", "value": "> 7.00"}]}
{"compound": "Cc1cc(F)ccc1-c1c(C)nnc(C(=O)Nc2ccc(Oc3ccnc4cc(C)c(F)nc34)c(F)c2)c1O", "note": "[Compound 430, N-[3-fluoro-4-[(6-fluoro-7-methyl-1,5-naphthyridin-4-yl)oxy]phenyl]-5-(4-fluoro-2-methylphenyl)-4-hydroxy-6-methylpyridazine-3-carboxamide]", "values": [{"measurement": "pIC50", "setting": "[1]", "value": "> 7.00"}, {"measurement": "pIC50", "setting": "[2]", "value": "> 7.00"}, {"measurement": "pIC50", "setting": "[3]", "value": "> 7.00"}]}
{"compound": "COc1cc2nccc(Oc3ncc(NC(=O)c4cn(-c5cnn(C)c5)cc(-c5ccc(F)cc5)c4=O)cc3F)c2cc1OC", "note": "[Compound 401, N-[6-(6,7-dimethoxyquinolin-4-yl)oxy-5-fluoropyridin-3-yl]-5-(4-fluorophenyl)-1-(1-methylpyrazol-4-yl)-4-oxopyridine-3-carboxamide]", "values": [{"measurement": "pIC50", "setting": "[1]", "value": "> 7.00"}, {"measurement": "pIC50", "setting": "[2]", "value": "> 7.00"}, {"measurement": "pIC50", "setting": "[3]", "value": "> 7.00"}]}
{"compound": "COc1cnc2c(Oc3ccc(NC(=O)c4cnc(C)c(-c5c(C)cc(F)cc5C)c4O)cc3F)ccnc2c1", "note": "[Compound 417, 5-(4-fluoro-2,6-dimethylphenyl)-N-[3-fluoro-4-[(7-methoxy-1,5-naphthyridin-4-yl)oxy]phenyl]-4-hydroxy-6-methylpyridine-3-carboxamide]", "values": [{"measurement": "pIC50", "setting": "[1]", "value": "6.52 to 7.00"}, {"measurement": "pIC50", "setting": "[2]", "value": "> 7.00"}, {"measurement": "pIC50", "setting": "[3]", "value": "6.52 to 7.00"}]}
{"compound": "COc1cc2nccc(Oc3ccc(NC(=O)c4cn(-c5cnn(C(F)F)c5)cc(-c5ccc(F)cc5)c4=O)cc3F)c2nc1OC", "note": "[Compound 60, 1-[1-(Difluoromethyl)pyrazol-4-yl]-N-[4-[(6,7-dimethoxy-1,5-naphthyridin-4-yl)oxy]-3-fluorophenyl]-5-(4-fluorophenyl)-4-oxopyridine-3-carboxamide]", "values": [{"measurement": "pIC50", "setting": "[1]", "value": "> 7.00"}, {"measurement": "pIC50", "setting": "[2]", "value": "> 7.00"}, {"measurement": "pIC50", "setting": "[3]", "value": "> 7.00"}]}
{"compound": "COc1cc2nccc(Oc3ccc(NC(=O)c4ncnc(-c5ccc(F)cc5)c4O)cc3F)c2nc1OC", "note": "[Compound 96, N-[4-[(6,7-Dimethoxy-1,5-naphthyridin-4-yl)oxy]-3-fluorophenyl]-6-(4-fluorophenyl)-5-hydroxypyrimidine-4-carboxamide]", "values": [{"measurement": "pIC50", "setting": "[1]", "value": "> 7.00"}, {"measurement": "pIC50", "setting": "[2]", "value": "> 7.00"}, {"measurement": "pIC50", "setting": "[3]", "value": "> 7.00"}]}
{"compound": "Cc1cc(F)ccc1-c1c(C)ncc(C(=O)Nc2ccc(Oc3ccnc4cc(C)c(F)nc34)c(F)c2)c1O", "note": "[Compound 427, N-[3-fluoro-4-[(6-fluoro-7-methyl-1,5-naphthyridin-4-yl)oxy]phenyl]-5-(4-fluoro-2-methylphenyl)-4-hydroxy-6-methylpyridine-3-carboxamide]", "values": [{"measurement": "pIC50", "setting": "[1]", "value": "> 7.00"}, {"measurement": "pIC50", "setting": "[2]", "value": "6.52 to 7.00"}, {"measurement": "pIC50", "setting": "[3]", "value": "> 7.00"}]}
{"compound": "Cc1cc2nccc(Oc3ccc(NC(=O)c4cnc(C)c(-c5ccc(F)cc5)c4O)cc3F)c2nc1OCCCN1CCOCC1", "note": "[Compound 438, N-[3-fluoro-4-[[7-methyl-6-(3-morpholin-4-ylpropoxy)-1,5-naphthyridin-4-yl]oxy]phenyl]-5-(4-fluorophenyl)-4-hydroxy-6-methylpyridine-3-carboxamide]", "values": [{"measurement": "pIC50", "setting": "[1]", "value": "> 7.00"}, {"measurement": "pIC50", "setting": "[2]", "value": "> 7.00"}, {"measurement": "pIC50", "setting": "[3]", "value": "> 7.00"}]}
{"compound": "COc1ccc2nccc(Oc3ccc(NC(=O)c4c(C)nc(C)c(-c5ccc(F)cc5)c4O)cc3F)c2n1", "note": "[Compound 67, N-[3-Fluoro-4-[(6-methoxy-1,5-naphthyridin-4-yl)oxy]phenyl]-5-(4-fluorophenyl)-4-hydroxy-2,6-dimethylpyridine-3-carboxamide]", "values": [{"measurement": "pIC50", "setting": "[1]", "value": "> 7.00"}, {"measurement": "pIC50", "setting": "[2]", "value": "> 7.00"}, {"measurement": "pIC50", "setting": "[3]", "value": "> 7.00"}]}
{"compound": "COc1cc2nccc(Oc3ccc(NC(=O)c4n[nH]c(C)c(-c5ccc(F)cc5C)c4=O)cc3F)c2nc1OC", "note": "[Compound 90, N-[4-[(6,7-Dimethoxy-1,5-naphthyridin-4-yl)oxy]-3-fluorophenyl]-5-(4-fluoro-2-methylphenyl)-6-methyl-4-oxo-1H-pyridazine-3-carboxamide]", "values": [{"measurement": "pIC50", "setting": "[1]", "value": "> 7.00"}, {"measurement": "pIC50", "setting": "[2]", "value": "> 7.00"}, {"measurement": "pIC50", "setting": "[3]", "value": "> 7.00"}]}
{"compound": "COc1cc2nccc(Oc3ncc(NC(=O)c4cn(-c5ccn(C)n5)cc(-c5ccc(F)cc5)c4=O)cc3F)c2cc1OC", "note": "[Compound 402, N-[6-(6,7-dimethoxyquinolin-4-yl)oxy-5-fluoropyridin-3-yl]-5-(4-fluorophenyl)-1-(1-methylpyrazol-3-yl)-4-oxopyridine-3-carboxamide]", "values": [{"measurement": "pIC50", "setting": "[1]", "value": "> 7.00"}, {"measurement": "pIC50", "setting": "[2]", "value": "> 7.00"}, {"measurement": "pIC50", "setting": "[3]", "value": "> 7.00"}]}
{"compound": "CCn1cc(C(=O)Nc2ccc(Oc3ccnc4cc(OC)c(OC)nc34)c(F)c2)c(=O)c(-c2ccc(F)cc2)c1C", "note": "[Compound 63, N-[4-[(6,7-Dimethoxy-1,5-naphthyridin-4-yl)oxy]-3-fluorophenyl]-1-ethyl-5-(4-fluorophenyl)-6-methyl-4-oxopyridine-3-carboxamide]", "values": [{"measurement": "pIC50", "setting": "[1]", "value": "> 7.00"}, {"measurement": "pIC50", "setting": "[2]", "value": "> 7.00"}, {"measurement": "pIC50", "setting": "[3]", "value": "> 7.00"}]}
{"compound": "COc1cc2nccc(Oc3ccc(NC(=O)c4nn(C)c(C)c(-c5ccc(F)cc5)c4=O)cc3F)c2nc1OC", "note": "[Compound 92, N-[4-[(6,7-Dimethoxy-1,5-naphthyridin-4-yl)oxy]-3-fluorophenyl]-5-(4-fluorophenyl)-1,6-dimethyl-4-oxopyridazine-3-carboxamide]", "values": [{"measurement": "pIC50", "setting": "[1]", "value": "> 7.00"}, {"measurement": "pIC50", "setting": "[2]", "value": "> 7.00"}, {"measurement": "pIC50", "setting": "[3]", "value": "> 7.00"}]}
{"compound": "COc1cc2nccc(Oc3ccc(NC(=O)c4cn(C)c(C)c(-c5ccc(F)cc5C)c4=O)cc3F)c2nc1OC", "note": "[Compound 75, N-[4-[(6,7-Dimethoxy-1,5-naphthyridin-4-yl)oxy]-3-fluorophenyl]-5-(4-fluoro-2-methylphenyl)-1,6-dimethyl-4-oxopyridine-3-carboxamide]", "values": [{"measurement": "pIC50", "setting": "[1]", "value": "> 7.00"}, {"measurement": "pIC50", "setting": "[2]", "value": "> 7.00"}, {"measurement": "pIC50", "setting": "[3]", "value": "> 7.00"}]}
{"compound": "COc1cnc2c(Oc3ccc(NC(=O)c4cn(C)c(Cl)c(-c5ccc(F)cc5)c4=O)cc3F)ccnc2c1", "note": "[Compound 411, 6-chloro-N-[3-fluoro-4-[(7-methoxy-1,5-naphthyridin-4-yl)oxy]phenyl]-5-(4-fluorophenyl)-1-methyl-4-oxopyridine-3-carboxamide]", "values": [{"measurement": "pIC50", "setting": "[1]", "value": "> 7.00"}, {"measurement": "pIC50", "setting": "[2]", "value": "> 7.00"}, {"measurement": "pIC50", "setting": "[3]", "value": "> 7.00"}]}
{"compound": "COCCOc1nc2c(Oc3ccc(NC(=O)c4cnc(C)c(-c5ccc(F)cc5)c4O)cc3)ccnc2cc1C", "note": "[Compound 437, 5-(4-fluorophenyl)-4-hydroxy-N-[4-[[6-(2-methoxyethoxy)-7-methyl-1,5-naphthyridin-4-yl]oxy]phenyl]-6-methylpyridine-3-carboxamide]", "values": [{"measurement": "pIC50", "setting": "[1]", "value": "> 7.00"}, {"measurement": "pIC50", "setting": "[2]", "value": "> 7.00"}, {"measurement": "pIC50", "setting": "[3]", "value": "> 7.00"}]}
{"compound": "CCc1cnc2c(Oc3ccc(NC(=O)c4cnc(C)c(-c5ccc(F)cc5)c4O)cc3F)ccnc2c1", "note": "[Compound 418, N-[4-[(7-ethyl-1,5-naphthyridin-4-yl)oxy]-3-fluorophenyl]-5-(4-fluorophenyl)-4-hydroxy-6-methylpyridine-3-carboxamide]", "values": [{"measurement": "pIC50", "setting": "[1]", "value": "> 7.00"}, {"measurement": "pIC50", "setting": "[2]", "value": "> 7.00"}, {"measurement": "pIC50", "setting": "[3]", "value": "> 7.00"}]}
{"compound": "COc1cc2nccc(Oc3ccc(NC(=O)c4cc(C(C)=O)c(C)n(-c5ccc(F)cc5)c4=O)cc3F)c2nc1OC", "note": "[Compound 86, 5-Acetyl-N-[4-[(6,7-dimethoxy-1,5-naphthyridin-4-yl)oxy]-3-fluorophenyl]-1-(4-fluorophenyl)-6-methyl-2-oxopyridine-3-carboxamide]", "values": [{"measurement": "pIC50", "setting": "[1]", "value": "> 7.00"}, {"measurement": "pIC50", "setting": "[2]", "value": "> 7.00"}, {"measurement": "pIC50", "setting": "[3]", "value": "> 7.00"}]}
